Experiment [1] addresses ACC2 (Homo sapiens (Human), UniProt O00763). The experiment can be described thus: in vitro ACC2 inhibition assay (ADP-Glo). It counts as biochemical. Conditions: 5 nM ACC2, 20 μM ATP, 20 μM acetyl-CoA. As for the experimental part:
An exemplary procedure for the in vitro ACC inhibition assay, which can be used to determine the inhibitory action of compounds of the invention toward either ACC1 or ACC2, follows. The ADP-Glo™ Kinase Assay kit from Promega is used. The ADP-Glo™ Kinase Assay is a luminescent ADP detection assay to measure enzymatic activity by quantifying the amount of ADP produced during an enzyme reaction. The assay is performed in two steps; first, after the enzyme reaction, an equal volume of ADP-Glo™ Reagent is added to terminate the reaction and deplete the remaining ATP. Second, the Kinase Detection Reagent is added to simultaneously convert ADP to ATP and allow the newly synthesized ATP to be measured using a luciferase/luciferin reaction. Luminescence can be correlated to ADP concentrations by using an […]. The detailed procedure is as follows. 50 μL of the compound being tested (600 uM in DMSO) is added to a 384-well dilution plate. The compound is diluted 1:3 in succession in DMSO for each row for 11 wells. 0.5 μL ACC2 working solution is added to 384-well white Optiplate assay plate. 0.5 μL diluted compound solution in each column from step 2 is added to the assay plate, each row containing 2 replicates. For the last 2 rows, add 0.5 μL negative control (DMSO) in one row and 0.5 μL positive control (compound I-97) in the other. The plates are incubated at room temperature for 15 minutes. […] Plates are incubated at room temperature for 40 minutes, then read on a Perkin Elmer EnVision 2104 plate reader for luminescence as Relative Light Units (RLU).
Data for each concentration, as well as the positive and negative controls are averaged, and the standard deviation calculated. Percent inhibition is calculated by the formula: 100× (average negative control−compound)/(average negative control−average positive control). The IC50 for each compound is calculated by fitting the data with a non-linear regression equation: Y=Bottom+(Top-Bottom)/(1+10^((Log IC50-X)*HillSlope)), where X is the log of compound concentration and Y is percent inhibition. […]

The test system of another experiment is ACC1. The following applies: ACC1 isolated from rat, mouse, monkey and human; cited from earlier work.
Experiment [2] has as its system ACC2. The following applies: ACC2 isolated from rat, mouse, monkey and human; cited from earlier work.

Drawing on patent publication US10208044B2, “ACC inhibitors and uses thereof” (Gilead Apollo, LLC, priority 2013, dated 2019), this text covers IC50 for four compounds.

Sequence of ACC2 (Homo sapiens (Human), UniProt O00763) (O00763 whole entry, species assumed): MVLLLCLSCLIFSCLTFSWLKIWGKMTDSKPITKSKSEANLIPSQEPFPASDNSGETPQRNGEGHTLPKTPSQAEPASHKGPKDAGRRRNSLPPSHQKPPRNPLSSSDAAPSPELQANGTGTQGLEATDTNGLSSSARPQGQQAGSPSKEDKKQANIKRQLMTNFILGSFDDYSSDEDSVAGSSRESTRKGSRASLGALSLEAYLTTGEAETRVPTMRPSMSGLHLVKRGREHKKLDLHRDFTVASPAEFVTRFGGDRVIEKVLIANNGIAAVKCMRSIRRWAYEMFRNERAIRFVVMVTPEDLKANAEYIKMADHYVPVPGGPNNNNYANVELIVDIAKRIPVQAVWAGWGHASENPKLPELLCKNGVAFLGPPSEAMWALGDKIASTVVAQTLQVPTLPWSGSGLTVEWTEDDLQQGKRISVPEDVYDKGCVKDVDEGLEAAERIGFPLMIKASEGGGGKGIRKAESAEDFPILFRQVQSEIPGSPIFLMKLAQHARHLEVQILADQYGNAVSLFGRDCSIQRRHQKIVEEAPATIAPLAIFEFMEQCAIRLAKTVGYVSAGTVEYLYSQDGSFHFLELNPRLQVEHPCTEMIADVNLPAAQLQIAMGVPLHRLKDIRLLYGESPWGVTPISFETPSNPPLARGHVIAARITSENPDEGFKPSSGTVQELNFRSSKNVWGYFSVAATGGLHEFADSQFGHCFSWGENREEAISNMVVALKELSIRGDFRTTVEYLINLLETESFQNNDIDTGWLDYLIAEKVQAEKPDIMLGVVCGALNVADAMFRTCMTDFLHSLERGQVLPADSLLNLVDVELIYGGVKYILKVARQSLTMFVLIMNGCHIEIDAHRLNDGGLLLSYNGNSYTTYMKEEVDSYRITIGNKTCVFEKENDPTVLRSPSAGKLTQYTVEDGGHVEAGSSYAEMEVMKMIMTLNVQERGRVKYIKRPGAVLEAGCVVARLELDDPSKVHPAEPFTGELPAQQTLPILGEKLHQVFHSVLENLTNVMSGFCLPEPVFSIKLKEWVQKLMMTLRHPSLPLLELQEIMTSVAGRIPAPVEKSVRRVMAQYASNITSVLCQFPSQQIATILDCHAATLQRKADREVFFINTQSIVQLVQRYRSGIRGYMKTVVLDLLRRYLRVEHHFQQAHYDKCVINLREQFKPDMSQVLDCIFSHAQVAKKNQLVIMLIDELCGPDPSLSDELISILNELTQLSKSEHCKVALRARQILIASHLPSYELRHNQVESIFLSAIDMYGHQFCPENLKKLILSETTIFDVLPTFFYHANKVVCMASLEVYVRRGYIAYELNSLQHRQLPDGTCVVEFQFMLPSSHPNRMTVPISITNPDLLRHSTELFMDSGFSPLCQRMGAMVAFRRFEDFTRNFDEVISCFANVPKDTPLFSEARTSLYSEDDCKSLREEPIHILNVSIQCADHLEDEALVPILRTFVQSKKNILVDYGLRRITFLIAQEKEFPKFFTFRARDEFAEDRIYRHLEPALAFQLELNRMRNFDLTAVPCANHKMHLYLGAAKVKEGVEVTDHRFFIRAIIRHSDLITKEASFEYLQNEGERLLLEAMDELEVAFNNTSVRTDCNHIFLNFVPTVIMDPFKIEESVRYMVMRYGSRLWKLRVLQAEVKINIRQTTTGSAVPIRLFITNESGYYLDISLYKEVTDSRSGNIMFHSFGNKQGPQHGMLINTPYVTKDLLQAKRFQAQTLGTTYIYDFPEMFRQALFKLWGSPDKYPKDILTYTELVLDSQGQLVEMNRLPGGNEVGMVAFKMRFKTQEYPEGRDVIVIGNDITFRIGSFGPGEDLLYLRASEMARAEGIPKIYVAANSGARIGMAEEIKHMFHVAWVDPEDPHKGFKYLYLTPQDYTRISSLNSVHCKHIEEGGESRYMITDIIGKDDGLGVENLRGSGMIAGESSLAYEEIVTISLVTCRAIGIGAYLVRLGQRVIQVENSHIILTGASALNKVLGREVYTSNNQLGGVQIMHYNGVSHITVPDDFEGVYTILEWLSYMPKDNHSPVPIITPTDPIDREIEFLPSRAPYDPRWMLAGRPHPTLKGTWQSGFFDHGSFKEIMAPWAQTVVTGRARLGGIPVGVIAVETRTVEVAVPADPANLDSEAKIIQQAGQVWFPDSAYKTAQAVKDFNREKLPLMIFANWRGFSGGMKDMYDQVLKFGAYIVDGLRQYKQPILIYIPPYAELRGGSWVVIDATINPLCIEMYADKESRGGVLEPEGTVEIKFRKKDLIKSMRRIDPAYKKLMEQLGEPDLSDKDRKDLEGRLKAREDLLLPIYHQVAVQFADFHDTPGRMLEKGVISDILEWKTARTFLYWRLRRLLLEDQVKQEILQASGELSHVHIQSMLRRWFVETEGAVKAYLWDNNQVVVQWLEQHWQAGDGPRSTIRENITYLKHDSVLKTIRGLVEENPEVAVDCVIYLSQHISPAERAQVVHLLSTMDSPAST

Compound `COc1ccc(F)cc1[C@H](Cn1c(=O)n(C(C)(C)C(=O)O)c(=O)c2cc(-c3ncco3)ccc21)OC1CCOCC1` [Compound I-28, (R)-2-(1-(2-(5-fluoro-2-methoxyphenyl)-2-((tetrahydro-2H-pyran-4-yl)oxy)ethyl)-6-(oxazol-2-yl)-2,4-dioxo-1,2-dihydroquinazolin-3(4H)-yl)-2-methylpropanoic acid] yielded an IC50 against ACC2 [1] of 20 to 50 µM.

As for `O=C(c1c2ccccc2cc2ccccc12)N1CCC(N2CCC[C@@H](C(=O)N3CCOCC3)C2)CC1` [CP-640186], the IC50 in the experiment on ACC1 and with ACC2 [2] was roughly 0.06 µM in each case. In turn, `COc1ccc(F)cc1[C@H](Cn1c(=O)n(C(C)(C)C(N)=O)c(=O)c2cc(-c3ncco3)ccc21)OC1CCOCC1` [Compound I-29, (R)-2-(1-(2-(5-fluoro-2-methoxyphenyl)-2-((tetrahydro-2H-pyran-4-yl)oxy)ethyl)-6-(oxazol-2-yl)-2,4-dioxo-1,2-dihydroquinazolin-3(4H)-yl)-2-methylpropanamide] gave an IC50 at ACC2 [1] of 20 to 50 µM. Same read-out and setting: the same measure for `COc1ccc(F)cc1[C@H](Cn1c(=O)n(C(C)(C)C(=O)O)c(=O)c2cc(Br)ccc21)OC1CCOCC1` [Compound I-30, (R)-2-(6-bromo-1-(2-(5-fluoro-2-methoxyphenyl)-2-((tetrahydro-2H-pyran-4-yl)oxy)ethyl)-2,4-dioxo-1,2-dihydroquinazolin-3(4H)-yl)-2-methylpropanoic acid]: 20 to 50 µM.
